According to patent US7799824B2, “Quaternary salt CCR2 antagonists” (OraPharma, Inc., priority 2004, dated 2010):
Values joined by “and” are separate entries in the source; they are usually repeats but may differ in a detail not shown here. Equal entries are not always repeated.

Target: T1, CCR2 (Homo sapiens, UniProt P41597)
T1 sequence (P41597 1-360 isoform P41597-2): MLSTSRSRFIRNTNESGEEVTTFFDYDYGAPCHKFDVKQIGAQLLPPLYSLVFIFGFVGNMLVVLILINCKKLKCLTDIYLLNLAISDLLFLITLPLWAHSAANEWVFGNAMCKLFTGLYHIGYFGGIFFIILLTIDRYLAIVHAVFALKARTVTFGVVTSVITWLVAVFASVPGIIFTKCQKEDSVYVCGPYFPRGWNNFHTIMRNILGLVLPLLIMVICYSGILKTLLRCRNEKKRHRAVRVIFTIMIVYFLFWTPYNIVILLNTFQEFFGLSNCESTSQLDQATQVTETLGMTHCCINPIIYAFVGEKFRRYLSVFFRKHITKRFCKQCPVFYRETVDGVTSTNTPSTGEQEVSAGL
Test: MCP-1 Receptor Binding Assay in THP-1 Cells
Details: for IC50: THP-1 cells, 0.5 nM 125I labeled MCP-1, 2 hours at 30° C., read-out: Mean Ligand Binding IC50 (inhibition of MCP-1 binding to CCR2); for inhibition at 25 µM: MCP-1 binding to CCR2, test concentration of 25 μM, unless indicated otherwise, read-out: % Inhibition Ligand Binding
Experimental: THP-1 cells were obtained from American Type Culture Collection (Manassas, Va., USA). […] The cell density was maintained between 0.5×10^6 cells/mL.
Cells were then harvested onto a filter plate, dried, and 20 μL of Microscint 20 was added to each well. Plates were counted in a TopCount NXT, Microplate Scintillation & Luminescence Counter (Perkin-Elmer Life Sciences, Inc. Boston, Mass.). Blank values (buffer only) were subtracted from all values and drug treated values were compared to vehicle treated values. 1 μM cold MCP-1 was used for nonspecific binding.

| Structure (SMILES) | IC50 | inhibition at 25 µM |
| --- | --- | --- |
| C[N+](C)(Cc1ccc(NC(=O)C=Cc2cccc(C(F)(F)F)c2)cc1)C1CCOCC1 [Cpd 68, dimethyl-(tetrahydro-pyran-4-yl)-{4-[3-(3-trifluoromethyl-phenyl)-acryloylamino]-benzyl}-ammonium iodide] | 1500 nM |  |
| C[N+](C)(Cc1ccc(NC(=O)C=Cc2ccc(Cl)c(Cl)c2)cc1)C1CCCCC1 [Cpd 71, cyclohexyl-{4-[3-(3,4-dichloro-phenyl)-acryloylamino]-benzyl}-dimethyl-ammonium iodide] | 170 nM and 320 nM |  |
| C[N+](C)(Cc1ccc(NC(=O)C=Cc2cccc(Br)c2)cc1)C1CCCCC1 [Cpd 72, {4-[3-(3-bromo-phenyl)-acryloylamino]-benzyl}-cyclohexyl-dimethyl-ammonium iodide] | 580 nM |  |
| C[N+](C)(Cc1ccc(NC(=O)c2cccc(Br)c2)cc1)C1CCCCC1 [Cpd 73, [4-(3-bromo-benzoylamino)-benzyl]-cyclohexyl-dimethyl-ammonium iodide] | 440 nM |  |
| C[N+](C)(Cc1ccc(NC(=O)c2cccc(C(F)(F)F)c2)cc1)C1CCCCC1 [Cpd 74, cyclohexyl-dimethyl-[4-(3-trifluoromethyl-benzoylamino)-benzyl]-ammonium iodide] | 1500 nM |  |
| C[N+](C)(Cc1ccc(NC(=O)c2ccc(F)c(Cl)c2)cc1)C1CCCCC1 [Cpd 76, [4-(3-chloro-4-fluoro-benzoylamino)-benzyl]-cyclohexyl-dimethyl-ammonium iodide] | 160 nM |  |
| C[N+](C)(Cc1ccc(NC(=O)c2cccc(Cl)c2Cl)cc1)C1CCCCC1 [Cpd 77, cyclohexyl-[4-(2,3-dichloro-benzoylamino)-benzyl]-dimethyl-ammonium iodide] |  | 53% |
| C[N+](C)(Cc1ccc(NC(=O)c2c(Cl)cccc2Cl)cc1)C1CCCCC1 [Cpd 78, cyclohexyl-[4-(2,6-dichloro-benzoylamino)-benzyl]-dimethyl-ammonium iodide] | 13400 nM |  |
| COc1ccc(C(=O)Nc2ccc(C[N+](C)(C)C3CCCCC3)cc2)cc1Cl [Cpd 79, [4-(3-chloro-4-methoxy-benzoylamino)-benzyl]-cyclohexyl-dimethyl-ammonium iodide] | 310 nM |  |
| Cc1ccc(C(=O)Nc2ccc(C[N+](C)(C)C3CCCCC3)cc2)cc1Cl [Cpd 80, [4-(3-chloro-4-methyl-benzoylamino)-benzyl]-cyclohexyl-dimethyl-ammonium iodide] | 30 nM |  |
| C[N+](C)(Cc1ccc(NC(=O)c2cc(Cl)ccc2Cl)cc1)C1CCCCC1 [Cpd 81, cyclohexyl-[4-(2,5-dichloro-benzoylamino)-benzyl]-dimethyl-ammonium iodide] | 3000 nM |  |
| C[N+](C)(Cc1cccc(NC(=O)C=Cc2ccc(Cl)c(Cl)c2)c1)C1CCCCC1 [Cpd 83, cyclohexyl-{3-[3-(3,4-dichloro-phenyl)-acryloylamino]-benzyl}-dimethyl-ammonium iodide] | 1200 nM |  |
| C[N+](C)(Cc1cccc(NC(=O)C=Cc2ccc(F)cc2)c1)C1CCCCC1 [Cpd 84, cyclohexyl-{3-[3-(4-fluoro-phenyl)-acryloylamino]-benzyl}-dimethyl-ammonium iodide] | 3200 nM |  |
| C[N+](C)(Cc1ccc(NC(=O)c2cccc(-c3ccc(C(F)(F)F)cc3)c2)cc1)C1CCOCC1 [Cpd 85, dimethyl-(tetrahydro-pyran-4-yl)-{4-[(4′-trifluoromethyl-biphenyl-3-carbonyl)-amino]-benzyl}-ammonium iodide] | 5200 nM |  |
| Cc1ccc(-c2cccc(C(=O)Nc3ccc(C[N+](C)(C)C4CCCCC4)cc3)c2)cc1 [Cpd 86, cyclohexyl-dimethyl-{4-[(4′-methyl-biphenyl-3-carbonyl)-amino]-benzyl}-ammonium iodide] | 6000 nM |  |
| C[N+](C)(Cc1ccc(NC(=O)c2ccc(-c3ccccc3)cc2)cc1)C1CCOCC1 [Cpd 88, {4-[(biphenyl-4-carbonyl)-amino]-benzyl}-dimethyl-(tetrahydro-pyran-4-yl)-ammonium iodide] | 870 nM |  |
| C[N+](C)(Cc1ccc(NC(=O)c2cccc3ccccc23)cc1)C1CCOCC1 [Cpd 89, dimethyl-{4-[(naphthalene-1-carbonyl)-amino]-benzyl}-(tetrahydro-pyran-4-yl)-ammonium iodide] |  | 29% |
| C[N+](C)(Cc1ccc(NC(=O)c2ccc3ccccc3c2)cc1)C1CCOCC1 [Cpd 90, dimethyl-{4-[(naphthalene-2-carbonyl)-amino]-benzyl}-(tetrahydro-pyran-4-yl)-ammonium iodide] | 220 nM |  |

| Structure (SMILES) | IC50 | inhibition at 25 µM |
| --- | --- | --- |
| CC[N+](C)(Cc1ccc(NC(=O)c2ccc3ccccc3c2)cc1)C1CCOCC1 (centres unmarked) [Cpd 91, ethyl-methyl-{4-[(naphthalene-2-carbonyl)-amino]-benzyl}-(tetrahydro-pyran-4-yl)-ammonium iodide] | 4100 nM |  |
| CCC[N+](C)(Cc1ccc(NC(=O)c2ccc3ccccc3c2)cc1)C1CCOCC1 (centres unmarked) [Cpd 92, methyl-{4-[(naphthalene-2-carbonyl)-amino]-benzyl}-propyl-(tetrahydro-pyran-4-yl)-ammonium iodide] |  | 54% |
| C[N+](C)(Cc1ccc(NC(=O)c2ccc3ccc(Br)cc3c2)cc1)C1CCOCC1 [Cpd 93, {4-[(7-bromo-naphthalene-2-carbonyl)-amino]-benzyl}-dimethyl-(tetrahydro-pyran-4-yl)-ammonium iodide] | 900 nM |  |
| C[N+](C)(Cc1ccc(NC(=O)c2ccc3ccc(Br)cc3c2)cc1)C1CCCCC1 [Cpd 94, {4-[(7-bromo-naphthalene-2-carbonyl)-amino]-benzyl}-cyclohexyl-dimethyl-ammonium iodide] | 1300 nM |  |
| C[N+](C)(Cc1ccc(NC(=O)C2=Cc3cc(Br)ccc3OC2)cc1)C1CCOCC1 [Cpd 95, {4-[(6-bromo-2H-chromene-3-carbonyl)-amino]-benzyl}-dimethyl-(tetrahydro-pyran-4-yl)-ammonium iodide] | 180 nM |  |
| C[N+](C)(Cc1ccc(NC(=O)C2=Cc3cc(Cl)ccc3OC2)cc1)C1CCOCC1 [Cpd 96, {4-[(6-chloro-2H-chromene-3-carbonyl)-amino]-benzyl}-dimethyl-(tetrahydro-pyran-4-yl)-ammonium iodide] | 110 nM |  |
| C[N+](C)(Cc1ccc(NC(=O)C2=Cc3cc(Br)ccc3OC2)cc1)C1CCCCC1 [Cpd 97, {4-[(6-bromo-2H-chromene-3-carbonyl)-amino]-benzyl}-cyclohexyl-dimethyl-ammonium iodide] | 450 nM |  |
| C[N+](C)(Cc1ccc(NC(=O)C2=Cc3cc(Cl)ccc3OC2)cc1)C1CCCCC1 [Cpd 98, {4-[(6-chloro-2H-chromene-3-carbonyl)-amino]-benzyl}-cyclohexyl-dimethyl-ammonium iodide] | 270 nM |  |
| C[N+](C)(Cc1ccc(CNC(=O)C2=Cc3cc(Br)ccc3OC2)cc1)C1CCOCC1 [Cpd 99, (4-{[(6-bromo-2H-chromene-3-carbonyl)-amino]-methyl}-benzyl)-dimethyl-(tetrahydro-pyran-4-yl)-ammonium iodide] |  | 34% |
| C[N+](C)(Cc1ccc(NC(=O)C2=Cc3c(Cl)cc(Cl)cc3OC2)cc1)C1CCOCC1 [Cpd 100, {4-[(5,7-dichloro-2H-chromene-3-carbonyl)-amino]-benzyl}-dimethyl-(tetrahydro-pyran-4-yl)-ammonium iodide] | 520 nM |  |
| C[N+](C)(Cc1ccc(NC(=O)C2=Cc3c(Cl)cc(Cl)cc3OC2)cc1)C1CCCCC1 [Cpd 101, cyclohexyl-{4-[(5,7-dichloro-2H-chromene-3-carbonyl)-amino]-benzyl}-dimethyl-ammonium iodide] | 1100 nM |  |
| C[N+](C)(Cc1ccc(NC(=O)C2=Cc3cc(Cl)cc(Cl)c3OC2)cc1)C1CCOCC1 [Cpd 102, {4-[(6,8-dichloro-2H-chromene-3-carbonyl)-amino]-benzyl}-dimethyl-(tetrahydro-pyran-4-yl)-ammonium iodide] | 190 nM |  |
| Cc1ccc2c(c1)C=C(C(=O)Nc1ccc(C[N+](C)(C)C3CCOCC3)cc1)CO2 [Cpd 103, dimethyl-{4-[(6-methyl-2H-chromene-3-carbonyl)-amino]-benzyl}-(tetrahydro-pyran-4-yl)-ammonium iodide] | 820 nM |  |
| COc1ccc2c(c1)C=C(C(=O)Nc1ccc(C[N+](C)(C)C3CCOCC3)cc1)CO2 [Cpd 104, {4-[(6-methoxy-2H-chromene-3-carbonyl)-amino]-benzyl}-dimethyl-(tetrahydro-pyran-4-yl)-ammonium iodide] | 1900 nM |  |
| Cc1ccc2c(c1)C=C(C(=O)Nc1ccc(C[N+](C)(C)C3CCCCC3)cc1)CO2 [Cpd 105, cyclohexyl-dimethyl-{4-[(6-methyl-2H-chromene-3-carbonyl)-amino]-benzyl}-ammonium iodide] | 320 nM |  |
| COc1ccc2c(c1)C=C(C(=O)Nc1ccc(C[N+](C)(C)C3CCCCC3)cc1)CO2 [Cpd 106, cyclohexyl-{4-[(6-methoxy-2H-chromene-3-carbonyl)-amino]-benzyl}-dimethyl-ammonium iodide] | 1100 nM |  |
| C[N+](C)(Cc1ccc(NC(=O)C2=Cc3cc(Cl)cc(Cl)c3OC2)cc1)C1CCCCC1 [Cpd 107, cyclohexyl-{4-[(6,8-dichloro-2H-chromene-3-carbonyl)-amino]-benzyl}-dimethyl-ammonium iodide] | 170 nM |  |
